This note sets out measurements from US11174243B2, “Succinate forms and compositions of Bruton's tyrosine kinase inhibitors” (Sunesis Pharmaceuticals, Inc., priority 2016, dated 2021).

The nature of data set [1]: Single-dose PK in monkey. It is filed as in vivo. As to conditions: male, cynomolgus monkey, plasma. The method, then: A series of single-dose PK studies were conducted in rat, dog, and monkey to investigate the plasma PK of Compound 2 following single oral and single intravenous (IV) administration of Compound 2.
The PK of Compound 2 was studied in the male cynomolgus monkey (n=3) following single IV administration of Compound 2 at 1 mg/kg and single oral administration at 5 mg/kg (DRN105-0042). Following each administration, serial blood samples were collected at 0.08, 0.25, 0.5, 1, 2, 4, 7, 16, and 24 hours postdose.

Data set [2] in a line: Solubility of Compound 2 in solvent systems (slurries, HPLC). It is filed as physicochemical. As to conditions: thermodynamic from solid, after one day at 20° C. The method, then:
Slurries were set up in the solvents reported in Table 1 by weighing approximately 200 mg of Compound 2, suspending the solid in 0.5 mL of solvent and checking that excess solid remained un-dissolved. The prepared samples were also used to calculate Compound 2 solubility in the solvent systems used.
The slurries prepared for the long term slurry experiments were sampled after one day at 20° C. to measure the solubility of Compound 2 in the solvent systems used. The solubility data were obtained by HPLC with respect to a response factor; six samples of Compound 2, dissolved in acetonitrile/methanol 40/60 at known concentration, were prepared and injected in HPLC. The resulting HPLC areas were used to calculate the HPLC response factor for Compound 2 (data not shown).

Data set [3] deals with human recombinant WT BTK (Homo sapiens, UniProt Q06187). In words: FRET recombinant kinase assay, WT BTK. It is filed as biochemical.
For data set [4], the system named is CD86 expression. Briefly: CpG induced CD86 expression (flow cytometry). Format: cell-based, human. As to conditions: 3.2 μM CpG stimulation, 1 μM. The method, then: (§1) Methods: Primary CLL B cells were isolated from the whole blood of consented patients by FICOLL density centrifugation and rosette-sep negative selection. Annexin V and propidium iodide flow cytometry was used to measure patient CLL cell viability and 7AAD was used to measure viability in stromal co-culture. CD40 and CD86 expression was evaluated via flow cytometry subsequent to sustained 3.2 μM CpG stimulation. BCR signaling in primary CLL cells was investigated by immunoblot succeeding 1 hour treatment and following 1 hour or 24 hours of incubation with Compound 1 in XLA cell lines. MTS values were read after 24 hours of drug incubation. ITK inhibition was investigated via immunoblot after stimulation with anti-CD3 and anti-CD28 and incubation with Compound 1 for 1 hour. Compound 1 was used at a concentration of 1 μM in preclinical studies unless otherwise noted.
A general note: Flow cytometry measures light scatter and fluorescence of single cells or particles in a stream.

The target in data set [5] is T1, TEC (Homo sapiens, UniProt P42680).
T1 sequence (P42680 1-631): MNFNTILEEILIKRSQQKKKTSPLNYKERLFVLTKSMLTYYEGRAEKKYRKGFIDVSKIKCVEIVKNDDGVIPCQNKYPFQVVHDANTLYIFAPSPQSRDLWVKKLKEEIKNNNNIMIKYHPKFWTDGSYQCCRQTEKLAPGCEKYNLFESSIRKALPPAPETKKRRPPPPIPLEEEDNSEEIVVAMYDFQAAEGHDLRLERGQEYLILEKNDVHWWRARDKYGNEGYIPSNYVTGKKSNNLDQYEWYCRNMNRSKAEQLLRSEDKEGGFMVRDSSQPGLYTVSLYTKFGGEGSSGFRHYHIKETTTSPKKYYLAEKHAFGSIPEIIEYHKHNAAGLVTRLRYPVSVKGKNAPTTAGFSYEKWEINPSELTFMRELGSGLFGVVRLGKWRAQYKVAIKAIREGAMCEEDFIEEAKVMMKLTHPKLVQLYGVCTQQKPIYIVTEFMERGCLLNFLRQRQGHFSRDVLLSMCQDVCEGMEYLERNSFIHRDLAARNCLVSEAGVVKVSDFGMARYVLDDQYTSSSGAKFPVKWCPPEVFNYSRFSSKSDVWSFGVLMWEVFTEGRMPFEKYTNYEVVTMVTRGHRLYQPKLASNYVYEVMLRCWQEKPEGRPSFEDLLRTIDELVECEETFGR
In words: In vitro kinase assay, TEC.

Data set [6] deals with T2, BTK (Homo sapiens, UniProt Q06187).
T2 construct: from tissue; host or cells: human whole blood
In words: Phase 1a single-dose study in humans: BTK inhibition (pBTK) in whole blood. Format: in vivo. The method, then: The primary endpoint of safety was assessed by monitoring adverse events (AEs), laboratory abnormalities, and cardiac findings (ECG). Secondary endpoints included evaluation of the PK parameters of area under the plasma concentration-time curve (AUC), maximum plasma concentration (Cmax), time of maximum concentration (Tmax), apparent volume of distribution (Vd/F), terminal elimination half-life (t1/2), terminal elimination rate constant (λz), and apparent clearance (Cl/F) as well as the PD parameter of BTK inhibition in whole blood. BTK inhibition was calculated based on phosphorylated BTK (pBTK) and total BTK (totBTK). All postdose blood samples and one predose sample were lysed in the presence of protease and phosphatase inhibitors (PPi); a second predose sample was lysed without PPi to estimate maximum reduction in pBTK attainable. The ratio of predose pBTK/totBTK without PPi was subtracted from each pBTK/totBTK with PPi, and % pBTK vs predose was calculated: […]

In data set [7] the test system is primary CLL cells in the presence of HS5 stromal protection. Briefly: Viability of primary CLL cells in stromal co-culture (7AAD). It is filed as cell-based. As to conditions: Homo sapiens, CLL cell, 48 hours, read-out: decrease of viability. On the procedure: as §1
Where [8] appears, read: 1 mg/kg, IV, dose 1, 70% PEG400/H2O, free base measured.
[9] abbreviates: 5 mg/kg, PO, dose 5, 0.1% CMC/0.2% Tween, free base measured.

pIC50: −log10 of the molar value. Converted amounts (≈) assume the structure as drawn.

T2 sequence (Q06187 whole entry): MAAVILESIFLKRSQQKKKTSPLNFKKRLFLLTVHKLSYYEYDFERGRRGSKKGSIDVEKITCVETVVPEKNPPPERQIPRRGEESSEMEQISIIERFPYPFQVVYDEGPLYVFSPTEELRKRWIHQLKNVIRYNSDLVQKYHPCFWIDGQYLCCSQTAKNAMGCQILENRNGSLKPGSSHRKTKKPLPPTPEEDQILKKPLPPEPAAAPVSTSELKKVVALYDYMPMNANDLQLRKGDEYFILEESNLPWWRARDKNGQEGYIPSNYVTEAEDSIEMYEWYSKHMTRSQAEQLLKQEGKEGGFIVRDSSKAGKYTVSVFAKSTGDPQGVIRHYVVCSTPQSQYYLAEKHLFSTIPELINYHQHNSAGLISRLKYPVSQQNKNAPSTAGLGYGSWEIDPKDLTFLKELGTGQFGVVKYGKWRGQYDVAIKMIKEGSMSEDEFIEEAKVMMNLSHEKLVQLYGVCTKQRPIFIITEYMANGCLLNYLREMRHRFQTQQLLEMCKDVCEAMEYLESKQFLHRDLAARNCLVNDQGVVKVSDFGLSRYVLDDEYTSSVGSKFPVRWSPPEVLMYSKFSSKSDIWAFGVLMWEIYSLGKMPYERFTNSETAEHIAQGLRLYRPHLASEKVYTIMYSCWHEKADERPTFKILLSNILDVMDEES
human recombinant WT BTK, sequence (Q06187 whole entry): as above

On to `NC(=O)[C@H]1CCN(c2ncnc(N)c2F)C[C@@H]1N1CCC[C@@H](Nc2cc(Cl)cc(C(F)(F)F)c2)C1=O` [Compound 2], for which the AUC(0-inf) (as a rule, total exposure, with the tail of the curve extrapolated) was found to be 1920 ng·h/mL in data set [1] (setting [8]) and 3220 ng·h/mL in data set [1] (setting [9]). Further, the C0 in data set [1] (setting [8]) is 1600 ng/mL. Further, the half-life (usually the time in which the quantity being followed falls by half) in data set [1] (setting [8]) was 1.9 h. Further, the highest concentration (Cmax) (as a rule, the highest concentration seen after dosing) in data set [1] (setting [9]) was 1400 ng/mL. In addition, in data set [1] (setting [9]), the time to peak (Tmax) (in general, the time from dosing to the highest level) turned out to be 1.5 h. Also, the bioavailability (usually the share of a dose that reaches the circulation, judged against a reference dose that is usually intravenous) in data set [1] (5 mg/kg, PO, dose 5, 0.1% CMC/0.2% Tween, read-out: % F (oral bioavailability)) is 33%. Further, the solubility – broadly, the concentration that dissolves in the medium under given conditions – at 1 day stood at 22 mg/mL (≈ 41.5 mM) in data set [2] (organic solvent or mixture, 1,4-dioxane); 41 mg/mL (≈ 77.4 mM) in data set [2] (organic solvent or mixture, 2-propanol/water 90/10); 11 mg/mL (≈ 20.8 mM) in data set [2] (organic solvent or mixture, 2-propanol); 11 mg/mL (≈ 20.8 mM) in data set [2] (organic solvent or mixture, Acetone); 16 mg/mL (≈ 30.2 mM) in data set [2] (organic solvent or mixture, Cyclohexanone); 49 mg/mL (≈ 92.5 mM) in data set [2] (organic solvent or mixture, Ethanol/water 90/10). The solubility at 1 day is 21 mg/mL (≈ 39.6 mM) in data set [2] (organic solvent or mixture, Ethanol); 2 mg/mL (≈ 3.77 mM) in data set [2] (organic solvent or mixture, Ethyl acetate); 1 mg/mL (≈ 1.89 mM) in data set [2] (organic solvent or mixture, Isopropyl acetate); 100 mg/mL (≈ 189 mM) in data set [2] (organic solvent or mixture, Methanol/water 90/10); 103 mg/mL (≈ 194 mM) in data set [2] (organic solvent or mixture, Methanol); 1 mg/mL (≈ 1.89 mM) in data set [2] (organic solvent or mixture, Tert-butylmethyl ether). Further, in data set [2] (Water), the concentration in solution (solubility at 1 day) came to 1 mg/mL (≈ 1.89 mM).

As to `NC(=O)[C@H]1CCN(c2ncnc(N)c2F)C[C@@H]1N1CCC[C@@H](Nc2cc(Cl)cc(C(F)(F)F)c2)C1=O` [Compound 1, (3R,3′R,4′S)-1′-(6-amino-5-fluoropyrimidin-4-yl)-3-((3-chloro-5-(trifluoromethyl)phenyl)amino)-2-oxo-[1,3′-bipiperidine]-4′-carboxamide], the pIC50 (usually the negative decadic logarithm of the IC50, by convention in mol/L) was 8.34 in data set [3] and 7.72 in data set [5]. Besides, the “decrease of CpG induced CD86 expression” value in data set [4] was determined as 15.7%. The “% BTK inhibition” value in data set [6] (Compound 1 plasma concentrations lower or close to 100 ng/mL) is reported as ≤ 75%. The “inhibition of pBTK” value in data set [6] (Compound 1 plasma concentrations ≥200 ng/mL) is recorded as ≥ 85%; in data set [6] (all dose levels, rapid, profound and prolonged, FIG. 13), ~100%. Also, in data set [6] (plasma concentrations above 1000 ng/mL, most of the subjects, largely around 100%), the “inhibition (pBTK)” value was > 85%. In addition, the cytotoxicity at 1 µM in data set [7] was 5.5%.
